Consider 31 compounds from ChEMBL document CHEMBL6115037, “Discovery of novel small molecules targeting TGF-β signaling for the treatment of non-small cell lung cancer” (Eur J Med Chem, 2025).

Data set [1] deals with A549. The data set can be described thus: Antiproliferative activity against human A549 cells assessed as inhibition of cell growth measured after 72 hrs by SRB method. Format: functional, cell-based. As to conditions: A549, 72 h. On the technique in general: The SRB assay estimates cell density from bound dye.
The nature of data set [2]: Water solubility of the compound in PBS buffer at pH 2.0 incubated for 24 hrs under shaking condition by HPLC analysis. Format: physicochemical.
A short description of data set [3]: Water solubility of the compound in PBS buffer at pH 7.4 incubated for 24 hrs under shaking condition by HPLC analysis. Format: physicochemical.
Data set [4] is described as follows: Water solubility of the compound […] at pH 9.0 incubated for 24 hrs under shaking condition by HPLC analysis. Format: physicochemical.
Data set [5] is described as follows: Permeability of the compound in PBS buffer assessed as drug recovery at pH 7.4 incubated for 16 hrs by PAMPA method. The format is ADME. As to conditions: read-out: Drug recovery.
Data set [6] concerns NCI-H441. The data set can be described thus: Antiproliferative activity against human NCI-H441 cells assessed as inhibition of cell growth measured after 72 hrs by SRB method. Format: functional, cell-based. As to conditions: NCI-H441, 72 h.
Data set [7] concerns NCI-H1299. The data set can be described thus: Antiproliferative activity against human NCI-H1299 cells assessed as inhibition of cell growth measured after 72 hrs by SRB method. The format is functional, cell-based. As to conditions: NCI-H1299, 72 h.
In data set [8] the test system is NCI-H1299. The data set can be described thus: Inhibition of colony formation in human NCI-H1299 cells at 0.05 to 0.5 uM measured after 48 hrs by crystal violet staining based inverted microscopic analysis. Conditions: dose 0.05-0.5 µM. The format is functional, cell-based.
In data set [9] the test system is A549. The data set can be described thus: Antitumor activity against human A549 cells xenografted in female BALB/c nude mouse model assessed as decrease in Ki-67 expression at 10 mg/kg via gavage by immunochemical staining based analysis. The format is functional, organism-based.
In data set [10] the test system is A549. The data set can be described thus: Antitumor activity against human A549 cells xenografted in female BALB/c nude mouse model assessed as decrease in tumor volume at 10 mg/kg via gavage fed with corn oil and measured every other day. Format: functional, organism-based. (In general: A xenograft is tissue or cells of one species grown in another, often human tumour cells in immunodeficient mice.)

Data set [11] has as its system A549. The data set can be described thus: Antitumor activity against human A549 cells xenografted in female BALB/c nude mouse model assessed as decrease in TbetaRI expression level at 10 mg/kg via gavage by Western blot analysis. Format: functional, organism-based.
In data set [12] the test system is A549. The data set can be described thus: Inhibition of cell invasion in human A549 cells at 0.5 uM incubated for 48 hrs by crystal violet staining based transwell assay relative to control. The format is functional.
Data set [13] has as its system A549. The data set can be described thus: Induction of cell cycle arrest in human A549 cells assessed as accumulation at G2/M phase at high concentration measured after 48 hrs by flow cytometric analysis. The format is functional, cell-based. (In general: Flow cytometry measures light scatter and fluorescence of single cells or particles in a stream.)
Data set [14] has as its system A549. The data set can be described thus: Induction of cell apoptosis in human A549 cells assessed as increase in early apoptotic cells at 0.05 uM measured after 48 hrs by Annexin V-FITC/PI staining based flow cytometry analysis. Format: functional.
The nature of data set [15]: Toxicity in female BALB/c nude mouse assessed as effect on body weight loss at 10 mg/kg via gavage fed with corn oil for every other day. Conditions: in vivo, po. Format: organism-based.
Data set [16] deals with A549. The data set can be described thus: Antitumor activity against human A549 cells xenografted in female BALB/c nude mouse model assessed as decrease in TbetaRI level at 10 mg/kg via gavage by immunochemical staining based analysis. The format is functional, organism-based.
Data set [17] has as its system A549. The data set can be described thus: Antiproliferative activity against human A549 cells harbouring si-NC at 0.5 uM by Western blot analysis relative to control. The format is functional.
Data set [18] relates to A549. The data set can be described thus: Inhibition of colony formation in human A549 cells at 0.5 uM measured after 48 days by crystal violet staining based inverted microscopic analysis relative to control. Format: functional. Conditions: A549, 1152 h, time 48 day.
In data set [19] the test system is NCI-H522. The data set can be described thus: Antiproliferative activity against human NCI-H522 cells assessed as inhibition of cell growth measured after 72 hrs by SRB method. Format: functional, cell-based. Conditions: NCI-H522, 72 h.
Data set [20] relates to A549. The data set can be described thus: Downregulation of TbetaRI protein expression in human A549 cells measured after 48 hrs by Western blot analysis. The format is functional, cell-based. Conditions: dose 0.05-0.5 µM.
The subject of data set [21] is A549. The data set can be described thus: Induction of cell cycle arrest in human A549 cells assessed as accumulation at G2/M phase measured after 48 hrs by flow cytometric analysis. Format: functional, cell-based. As to conditions: dose 0.05-0.5 µM.
Data set [22] concerns A549. The data set can be described thus: Inhibition of cell invasion in human A549 cells incubated for 48 hrs by crystal violet staining based transwell assay. Conditions: dose 0.05-0.5 µM. The format is functional.
For data set [23], the system named is A549. The data set can be described thus: Inhibition of cell migration in human A549 cells incubated for 48 hrs by wound healing assay. The format is functional, cell-based. As to conditions: dose 0.05-0.5 µM.
The test system of data set [24] is A549. The data set can be described thus: Antiproliferative activity against human A549 cells harbouring TbetaI knockout at 0.5 uM by Western blot analysis. Format: functional, cell-based.
Data set [25] deals with A549. The data set can be described thus: Inhibition of cell migration in human A549 cells at 0.5 uM incubated for 48 hrs by wound healing assay relative to control. The format is functional.
For data set [26], the system named is NCI-H1299. The data set can be described thus: Antiproliferative activity against human NCI-H1299 cells harbouring TbetaI by Western blot analysis. Format: functional, cell-based. As to conditions: dose 0.05-0.5 µM.
The test system of data set [27] is A549. The data set can be described thus: Downregulation of Smad2/3 phosphorylation level in human A549 cells measured after 48 hrs by Western blot analysis. Format: functional, cell-based. As to conditions: dose 0.05-0.5 µM.
The subject of data set [28] is A549. The data set can be described thus: Induction of cell apoptosis in human A549 cells assessed as increase in early apoptotic cells measured after 48 hrs by Annexin V-FITC/PI staining based flow cytometry analysis. Format: functional. As to conditions: dose 0.05-0.5 µM.
In data set [29] the test system is A549. The data set can be described thus: Antitumor activity against human A549 cells xenografted in female BALB/c nude mouse model assessed as decrease in tumor weight at 10 mg/kg via gavage fed with corn oil and measured every other day. Format: functional, organism-based.

Values after ≈ are worked out from the molar mass of the structure shown. Active and inactive are the calls of the source. No cut-off for these calls is given here.

`O=C(Cc1ccccc1F)N1CCc2c([nH]c3c(C(=O)N4CCNCC4)cccc23)C1`: in data set [1], the IC50 (commonly the concentration at which inhibition is half-maximal) is above 5000 nM.

As for `O=C(Cc1ccccc1F)N1CCc2c([nH]c3c(C(=O)N4CCC(O)CC4)cccc23)C1`, the IC50 in [1] is above 5000 nM.

As to `NC1CCC(NC(=O)c2cccc3c4c([nH]c23)CN(C(=O)Cc2ccccc2F)CC4)C1` (stereo not drawn), the IC50 in data set [1] was above 5000 nM.

As for `O=C(NC1CCC(O)C1)c1cccc2c3c([nH]c12)CN(C(=O)Cc1ccccc1F)CC3` (stereo not drawn), the IC50 in data set [1] was 220 nM.

For `NC1CCC(OC(=O)c2cccc3c4c([nH]c23)CN(C(=O)Cc2ccccc2F)CC4)CC1` (stereo not drawn), the half-maximal inhibitory concentration (IC50) in [1] was above 5000 nM.

`O=C(NCCO)c1cc(NC(=O)C2CCNCC2)cc2c3c([nH]c12)CN(C(=O)Cc1ccccc1F)CC3`: in data set [1], the IC50 was above 5000 nM.

On to `O=C(NC1CCC(O)CC1)c1cccc2c3c([nH]c12)CN(C(=O)Cc1ccccc1F)CC3` (stereo not drawn), for which the IC50 in [1] amounted to 490 nM.

Regarding `O=C(NCCO)c1cc(NC(=O)C2CCOCC2)cc2c3c([nH]c12)CN(C(=O)Cc1ccccc1F)CC3`, the IC50 in [1] is above 5000 nM.

As to `O=C(Cc1ccccc1)N1CCc2c([nH]c3ccccc23)C1`, in data set [1], the IC50 worked out at 9130 nM. The thermodynamic solubility – broadly, the concentration in solution at equilibrium with solid – at 24 h is 2.23 µM (≈ 0.648 µg/mL) in data set [2], 7.24 µM (≈ 2.1 µg/mL) in data set [3] and 10.7 µM (≈ 3.11 µg/mL) in data set [4]. Besides, the recovery at 16 h in data set [5] was determined as 24.4%.

For `O=C(NCCO)c1cccc2c3c([nH]c12)CN(C(=O)Cc1ccccc1F)CC3`, the IC50 in [1] came to 220 nM.

In the case of `O=C(NCCO)c1cccc2c3c([nH]c12)CN(C(=O)Cc1ccco1)CC3`, in data set [1], the IC50 was 4010 nM.

With `O=C(NC12CC3CC(CC(O)(C3)C1)C2)c1cccc2c3c([nH]c12)CN(C(=O)Cc1ccccc1F)CC3`, in [1], the 50% inhibitory concentration (IC50) was found to be 130 nM.

For the compound `CC(=O)Nc1cc(C(=O)NCCO)c2[nH]c3c(c2c1)CCN(C(=O)Cc1ccccc1F)C3`, in data set [1], the IC50 is above 5000 nM.

As for `O=C(NC1CCCC1O)c1cccc2c3c([nH]c12)CN(C(=O)Cc1ccccc1F)CC3` (stereo not drawn), the 50% inhibitory concentration (IC50) in data set [1] is 930 nM.

For `O=C(NC1CCCC(O)C1)c1cccc2c3c([nH]c12)CN(C(=O)Cc1ccccc1F)CC3` (stereo not drawn), in data set [1], the half-maximal inhibitory concentration (IC50) was 120 nM.

Turning to `O=C(Cc1ccccc1F)N1CCc2c([nH]c3c(C(=O)N4CCN(C5COC5)CC4)cccc23)C1`, the IC50 in data set [1] was above 5000 nM.

Regarding `C[C@]12CC[C@H]3[C@@H](CCC4=CC(=O)CC[C@@]43C)[C@@H]1CC[C@@H]2O` [TESTOSTERONE], the recovery at 16 h in [5] was 85.6%.

Regarding `NCCC(=O)Nc1cc(C(=O)NCCO)c2[nH]c3c(c2c1)CCN(C(=O)Cc1ccccc1F)C3`, in [1], the 50% inhibitory concentration (IC50) is above 5000 nM.

On to `O=C(NC1CCCC1O)c1cccc2c3c([nH]c12)CN(C(=O)Cc1cccs1)CC3` (stereo not drawn), for which the IC50 in data set [1] came out at 70 nM.

As to `O=C(NC1CCC(C(=O)O)C1)c1cccc2c3c([nH]c12)CN(C(=O)Cc1ccccc1F)CC3` (stereo not drawn), in data set [1], the IC50 is above 5000 nM.

As for `O=C(NCCO)c1cccc2c3c([nH]c12)CN(C(=O)Nc1ccccc1F)CC3`, in data set [1], the IC50 was above 5000 nM.

Turning to `CN(Cc1cnc2nc(N)nc(N)c2n1)c1ccc(C(=O)N[C@@H](CCC(=O)O)C(=O)O)cc1` [METHOTREXATE], the recovery at 16 h in data set [5] is 96.2%.

`O=C(NCCO)c1cccc2c3c([nH]c12)CN(S(=O)(=O)Cc1ccccc1F)CC3`: in data set [1], the 50% inhibitory concentration (IC50) came out at 1640 nM.

With `C=CC(=O)Nc1cc(C(=O)NCCO)c2[nH]c3c(c2c1)CCN(C(=O)Cc1ccccc1F)C3`, the IC50 in data set [1] is above 5000 nM.

Regarding `O=C(Cc1ccccc1F)N1CCc2c([nH]c3c(C(=O)N4CCC(O)C4)cccc23)C1` (stereo not drawn), the IC50 in [1] was above 5000 nM.

For `O=C(NC1CCC(O)C1)c1cccc2c3c([nH]c12)CN(C(=O)Cc1cccs1)CC3` (stereo not drawn), the IC50 in data set [6] was 90 nM; in [7], 210 nM; in [1] it was 50 nM; in [19], 260 nM. Further, in data set [8], the inhibition (as a rule, the share of the control response that was lost under treatment) is “Active”. Moreover, the outcome in data set [9], in [10], in [11], in [13], in data set [14] and in [16] was Active. The result in data set [29] was Active. For the same compound, the inhibition at 0.5 µM in data set [12], in data set [18] and in [25] was 100% each time. Also, the Activity result in data set [15] is “Non-toxic”; in data set [17], 100%; in data set [20], “Dose-dependent-effect”; in data set [21], “Dose-dependent-effect”; in data set [26], “Dose-dependent-effect”; in data set [27], “Dose-dependent-effect”. Also, the Activity entry in data set [28] was “Dose-dependent-effect”. The thermodynamic solubility at 24 h in data set [2] was determined as 40 µM (≈ 16.9 µg/mL); in data set [3], 41.4 µM (≈ 17.5 µg/mL); in [4], 50.4 µM (≈ 21.3 µg/mL). Besides, the inhibition entry in [22] and in data set [23] was “Dose-dependent-effect” each time. The outcome in data set [24] was inactive. Also, in data set [5], the recovery at 16 h is 65.8%.

As to `O=C(NCCO)c1cccc2c3c([nH]c12)CN(C(=O)Cc1cccs1)CC3`, in [1], the IC50 worked out at 380 nM.

For `O=C(NC1CCCCC1O)c1cccc2c3c([nH]c12)CN(C(=O)Cc1ccccc1F)CC3` (stereo not drawn), in [1], the IC50 is above 5000 nM.

Turning to `O=C(Cc1ccccc1F)N1CCc2c([nH]c3c(C(=O)N4CCC(CO)CC4)cccc23)C1`, in [1], the IC50 is above 5000 nM.

Take `O=C(NCCO)c1cccc2c3c([nH]c12)CN(C(=O)NCc1ccccc1F)CC3`: the IC50 in [1] is above 5000 nM.

With `O=C(NCCO)c1cccc2c3c([nH]c12)CN(C(=O)Cc1c(F)cccc1F)CC3`, the IC50 in data set [1] is above 5000 nM.
